Assay results published in patent US8501753B2, “Useful pharmaceutical salts of 7-[(3R, 4R)-3-Hydroxy-4-hydroxymethyl-pyrrolidin-1-ylmethyl]-3, 5-dihydro-pyrrolo [3, 2-D] pyrimidin-4-one” (BioCryst Pharmaceuticals, Inc., priority 2009, dated 2013).

Assay: Water sorption/desorption by dynamic vapor sorption (DVS)
Format: physicochemical
Conditions: water sorption/desorption chamber
Text: Table 4 provides a summary of other solid state data collected for the monohydrate salts of compound 1 described in Examples 33-39. The temperature at which the salts dehydrated per DSC is shown in column 2. The percent weight loss as determined by TGA is shown in column 3; the weight loss approximated theoretical weight loss.

Weight gain from 0 to 20% RH from DVS	Weight gain from 0 to 90% RH from DVS	Structure (SMILES)
5.44	6.04	O.O.O=C(O)CCC(=O)O.O=c1[nH]cnc2c(CN3CC(O)C(CO)C3)c[nH]c12.O=c1[nH]cnc2c(CN3CC(O)C(CO)C3)c[nH]c12 (stereo not shown) [Hemisuccinate]
0.87	5.68	O.O.O=C(O)CC(O)C(=O)O.O=c1[nH]cnc2c(CN3CC(O)C(CO)C3)c[nH]c12.O=c1[nH]cnc2c(CN3CC(O)C(CO)C3)c[nH]c12 [Hemi-L-malate]
